Test results from the supplement of paper PMC13380429.

What was measured:
Details in all cases: 72 h
Caco-2 [1] = test: relative viability EC50 (midpoint between 100% and the lowest measured viability); higher = less toxic
U2OS [2] = test: as above
Vero E6 [3] = test: as above
Calu-3 [4] = test: as above
Caco-2 [5] = test: drug sensitivity score (DSS) for viability; higher = more toxic; extreme values may be limits of the assay
U2OS [6] = test: as above
Vero E6 [7] = test: as above
Calu-3 [8] = test: as above
Caco-2 [9] = test: cell viability relative to DMSO; higher = less toxic
U2OS [10] = test: as above
Vero E6 [11] = test: as above
Calu-3 [12] = test: as above
HepG2 [13] = test: relative viability EC50 (midpoint between 100% and the lowest measured viability); higher = less toxic
HepG2 [14] = test: drug sensitivity score (DSS) for viability; higher = more toxic; extreme values may be limits of the assay
HepG2 [15] = test: cell viability relative to DMSO; higher = less toxic

SMILES	relative viability EC50 (Caco-2 [1]) [µM]	relative viability EC50 (U2OS [2]) [µM]	relative viability EC50 (Vero E6 [3]) [µM]	relative viability EC50 (Calu-3 [4]) [µM]	drug sensitivity score (Caco-2 [5])	drug sensitivity score (U2OS [6])	drug sensitivity score (Vero E6 [7])	drug sensitivity score (Calu-3 [8])	cell viability (Caco-2 [9]; 1 nM) [%]	cell viability (Caco-2 [9]; 10 nM) [%]	cell viability (Caco-2 [9]; 100 nM) [%]	cell viability (Caco-2 [9]; 1000 nM) [%]	cell viability (Caco-2 [9]; 10000 nM) [%]	cell viability (U2OS [10]; 1 nM) [%]	cell viability (U2OS [10]; 10 nM) [%]	cell viability (U2OS [10]; 100 nM) [%]	cell viability (U2OS [10]; 1000 nM) [%]	cell viability (U2OS [10]; 10000 nM) [%]	cell viability (Vero E6 [11]; 1 nM) [%]	cell viability (Vero E6 [11]; 10 nM) [%]	cell viability (Vero E6 [11]; 100 nM) [%]	cell viability (Vero E6 [11]; 1000 nM) [%]	cell viability (Vero E6 [11]; 10000 nM) [%]	cell viability (Calu-3 [12]; 1 nM) [%]	cell viability (Calu-3 [12]; 10 nM) [%]	cell viability (Calu-3 [12]; 100 nM) [%]	cell viability (Calu-3 [12]; 1000 nM) [%]	cell viability (Calu-3 [12]; 10000 nM) [%]	relative viability EC50 (HepG2 [13]) [µM]	drug sensitivity score (HepG2 [14])	cell viability (HepG2 [15]; 1 nM) [%]	cell viability (HepG2 [15]; 10 nM) [%]	cell viability (HepG2 [15]; 100 nM) [%]	cell viability (HepG2 [15]; 1000 nM) [%]	cell viability (HepG2 [15]; 10000 nM) [%]
Clc1ccc2c(NCCNc3ccnc4cc(Cl)ccc34)ccnc2c1 [NSC-5844]	> 10	> 10	> 10	> 10	0.4	0	0	0	98.6	102	106	117	76.9	97.3	96.6	100	94.9	96.7	88	95.2	96.2	94.5	101	97.8	98.3	103	96.9	96.1	–	–	–	–	–	–	–
CC(C)(OCc1nn(Cc2ccccc2)c2ccccc12)C(=O)O [bindarit]	> 10	–	> 10	> 10	0	–	0	0	104	101	108	102	96.8	–	–	–	–	–	102	105	100	107	91.4	99	95.5	106	95.1	104	> 10	0	97.2	96.4	100	99.2	100
CC(C)(C)c1ccc(CN2CCN(C(c3ccccc3)c3ccc(Cl)cc3)CC2)cc1 (stereo not given) [buclizine]	> 10	> 10	> 10	> 10	0.2	0	0	0	108	98.3	100	98.3	87.5	96.7	97.6	96.8	98.9	90.8	103	102	101	98.2	95.9	95.1	98.3	94.6	87.1	92.1	–	2.2	95.7	106	99.6	91.3	73.5
COc1ccc2nc(NC(=O)Nc3ccccc3)sc2c1 [frentizole]	> 10	> 10	> 10	> 10	1.2	0	0	0	103	98.3	88	88.2	87.9	95.7	97.2	97	95	95.3	100	105	98.6	97.1	97.5	110	99.4	93.7	107	91.1	–	3.7	101	105	93.8	89.7	56.8
Cc1c(I)c(=O)n(-c2ccccc2)n1C [iodoantipyrine]	> 10	–	> 10	> 10	0	–	0	0	107	104	94.8	99.4	98.7	–	–	–	–	–	98.8	93.3	96.9	95.3	101	105	106	96.1	93.7	93.2	> 10	0	94.7	102	95	102	91.2
O=c1[nH]c2ccccc2n1C1CCN(CCOc2ccccc2)CC1 [oxiperomide]	> 10	> 10	> 10	> 10	0	0	0.7	0.1	104	105	87.3	104	87.2	98.9	108	100	99.8	91.6	97.4	95.8	98.6	99.4	78.7	112	101	97.1	97.9	88.2	–	1.9	104	112	95.7	98.1	64.7
Nc1n[n+]([O-])c2ccccc2[n+]1[O-] [tirapazamine]	> 10	> 10	> 10	> 10	0	0	0	0	99.9	102	92.3	94.8	90.4	100	98.9	99.1	97.8	99	101	97.6	101	95.6	90.7	104	103	107	97.8	102	–	2.8	92.3	91.1	93.2	88.9	63.9
